Columns and labels:
[1] = target: T1, Amine oxidase [flavin-containing] B (Homo sapiens, UniProt P27338); assay: biochemical; format: cell-based
T1 sequence (P27338 whole entry): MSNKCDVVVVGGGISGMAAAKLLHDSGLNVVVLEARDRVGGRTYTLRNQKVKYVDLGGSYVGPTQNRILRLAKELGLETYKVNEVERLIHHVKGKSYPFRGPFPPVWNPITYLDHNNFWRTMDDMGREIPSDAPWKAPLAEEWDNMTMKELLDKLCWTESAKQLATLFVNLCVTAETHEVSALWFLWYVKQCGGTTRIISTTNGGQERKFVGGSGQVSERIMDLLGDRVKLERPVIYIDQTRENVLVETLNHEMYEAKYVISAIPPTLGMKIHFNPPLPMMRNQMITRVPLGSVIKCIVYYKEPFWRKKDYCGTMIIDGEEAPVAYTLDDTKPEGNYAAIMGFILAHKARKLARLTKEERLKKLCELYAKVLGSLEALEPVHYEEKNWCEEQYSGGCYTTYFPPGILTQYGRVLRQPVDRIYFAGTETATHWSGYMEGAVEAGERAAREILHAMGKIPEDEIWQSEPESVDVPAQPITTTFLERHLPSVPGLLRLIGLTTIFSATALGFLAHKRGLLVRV

[2] = target: T2, Amine oxidase [flavin-containing] A (Homo sapiens, UniProt P21397); assay: biochemical
T2 sequence (P21397 whole entry): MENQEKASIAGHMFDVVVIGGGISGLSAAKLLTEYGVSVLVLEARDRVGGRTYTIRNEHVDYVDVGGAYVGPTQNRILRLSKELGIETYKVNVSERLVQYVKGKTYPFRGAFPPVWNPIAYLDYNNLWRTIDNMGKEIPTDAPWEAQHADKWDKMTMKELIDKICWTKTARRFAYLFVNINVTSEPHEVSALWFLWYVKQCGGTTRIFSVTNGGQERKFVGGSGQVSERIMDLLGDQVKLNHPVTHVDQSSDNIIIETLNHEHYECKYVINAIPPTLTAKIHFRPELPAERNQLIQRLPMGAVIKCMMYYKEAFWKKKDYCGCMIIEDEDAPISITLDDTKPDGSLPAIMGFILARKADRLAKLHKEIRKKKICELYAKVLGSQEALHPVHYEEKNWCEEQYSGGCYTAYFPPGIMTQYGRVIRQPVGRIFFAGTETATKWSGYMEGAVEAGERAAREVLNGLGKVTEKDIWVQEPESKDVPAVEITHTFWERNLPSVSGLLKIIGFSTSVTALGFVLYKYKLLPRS

[3] = target: T2, Amine oxidase [flavin-containing] A; assay: Inhibition of human recombinant MAO-A expressed in baculovirus infected BT1 cells at 100 uM
[4] = target: T1, Amine oxidase [flavin-containing] B; assay: Inhibition of human recombinant MAO-B expressed in baculovirus infected BT1 cells at 1 mM; conditions: 1000 µM

Row | Compound | IC50 [1] | IC50 [2] | inhibition (INH) [3] | inhibition (INH) [4]
1 | CC(=O)N1N=C(c2ccc(OCC=C(C)C)cc2O)CC1c1ccc(OCc2ccccc2)cc1 (configuration not stated) | 174 nM | 316 nM |  | 
2 | CC(C)=CCOc1ccc(C2=NN(C(N)=S)C(c3ccccc3)C2)c(O)c1 (configuration not stated) | 52500 nM |  | Not Active | 
3 | CC(C)=CCOc1ccc(C2=NN(C(N)=S)C(c3ccc(Cl)cc3)C2)c(O)c1 (configuration not stated) | 832 nM |  | Not Active | 
4 | O=C(NCCN1CCOCC1)c1ccc(Cl)cc1 [MOCLOBEMIDE] |  |  |  | Not Active

Source: ChEMBL document CHEMBL1268994, “Synthesis and molecular modelling studies of prenylated pyrazolines as MAO-B inhibitors” (Bioorg Med Chem Lett, 2010)
